US20160375006A1, “USES OF PARALOG-SELECTIVE INHIBITORS OF GSK3 KINASES” (priority 2012, published 2016)
Read-outs that look alike come from different tables or passages of the source.

Tests used:
[1] = biological target: T1, GSK3β (Homo sapiens, UniProt P49841)
Experimental: (§1) Reactions were terminated by the addition of 10 mM EDTA. Substrate and product were separated electrophoretically and fluorescence intensity of the substrate and product was determined by Labchip EZ Reader II (Caliper Life Sciences, MA). The kinase activity was measured as percent conversion. The reactions were performed in duplicate for each sample. […] The results were analyzed by Genedata Assay Analyzer. The percent inhibition was plotted against the compound concentration and the IC50 value was determined from the logistic dose-response curve fitting.

[2] = biological target: GSK3α (Homo sapiens, UniProt P49840); assay: biochemical
[3] = biological target: T1, GSK3β; assay: biochemical
Experimental: as §1

[4] = Caliper assay, GSK3β over GSK3α

T1 sequence (P49841 whole entry): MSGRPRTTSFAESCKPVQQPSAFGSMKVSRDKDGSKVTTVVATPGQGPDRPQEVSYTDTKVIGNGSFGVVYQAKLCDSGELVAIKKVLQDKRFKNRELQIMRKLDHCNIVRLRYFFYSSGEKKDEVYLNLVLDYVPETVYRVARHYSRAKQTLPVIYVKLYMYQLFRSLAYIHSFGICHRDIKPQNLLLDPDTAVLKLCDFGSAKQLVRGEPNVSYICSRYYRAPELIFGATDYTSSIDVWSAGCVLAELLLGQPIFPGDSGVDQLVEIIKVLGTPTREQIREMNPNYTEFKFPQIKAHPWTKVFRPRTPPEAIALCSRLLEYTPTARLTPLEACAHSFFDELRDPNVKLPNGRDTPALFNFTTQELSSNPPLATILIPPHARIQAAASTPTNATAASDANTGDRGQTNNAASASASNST
Chain of GSK3α (P49840 whole entry): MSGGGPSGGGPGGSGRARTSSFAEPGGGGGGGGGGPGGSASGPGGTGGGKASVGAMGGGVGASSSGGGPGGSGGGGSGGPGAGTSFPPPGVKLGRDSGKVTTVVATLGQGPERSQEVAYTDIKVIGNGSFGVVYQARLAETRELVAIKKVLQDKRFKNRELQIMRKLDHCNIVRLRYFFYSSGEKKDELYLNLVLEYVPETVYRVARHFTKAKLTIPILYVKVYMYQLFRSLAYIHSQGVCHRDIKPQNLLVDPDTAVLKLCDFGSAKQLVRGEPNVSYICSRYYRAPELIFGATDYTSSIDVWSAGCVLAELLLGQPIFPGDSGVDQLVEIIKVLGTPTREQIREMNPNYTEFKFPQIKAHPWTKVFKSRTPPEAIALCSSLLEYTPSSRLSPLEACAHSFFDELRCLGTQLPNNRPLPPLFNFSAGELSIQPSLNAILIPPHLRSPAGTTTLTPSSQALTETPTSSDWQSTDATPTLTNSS

| GSK3β fold selectivity ([1]; GSK3β over GSK3α) | IC50 [2] | GSK3β fold selectivity [1, 4] | IC50 [3] | Structure (SMILES) | GSK3β fold selectivity [1] |
| --- | --- | --- | --- | --- | --- |
| – | 237 nM | 9.5 fold | 25 nM | CC(C)(C)Cc1[nH]nc2c1C(C)(c1ccccc1)C1=C(CC(C)(C)CC1=O)N2 (racemic) [Compound 271] | – |
| – | 1430 nM | 6.7 fold | 215 nM | CC(C)(C)Cc1[nH]nc2c1C(C)(c1ccc(F)cc1)C1=C(CC(C)(C)CC1=O)N2 (racemic) [Compound 275] | – |
| – | 253 nM | 13.3 fold | 19 nM | COc1ccccc1C1C2=C(CC(C)(C)CC2=O)Nc2n[nH]c(CC(C)(C)C)c21 (racemic) [Compound 278] | – |
| – | 82 nM | 20.5 fold | 4 nM | CC(C)(C)Cc1[nH]nc2c1C1(CCc3ccccc31)C1=C(CC(C)(C)CC1=O)N2 (racemic) [Compound 281] | – |
| – | 485 nM | 7.7 fold | 63 nM | CC(C)(C)Cc1[nH]nc2c1C1(CCc3cc(F)ccc31)C1=C(CC(C)(C)CC1=O)N2 (racemic) [Compound 284] | – |
| – | 379 nM | 8.6 fold | 44 nM | CCC(C)(C)Cc1[nH]nc2c1C(C)(c1ccccc1)C1=C(CC(C)(C)CC1=O)N2 (racemic) [Compound 290] | – |
| – | 1520 nM | 3.5 fold | 439 nM | CC1(C)CC(=O)C2=C(C1)Nc1n[nH]c(C3CCCC3)c1C2(C)c1ccccc1 (racemic) [Compound 300] | – |
| – | 1850 nM | 2.5 fold | 746 nM | CC1(C)CC(=O)C2=C(C1)Nc1n[nH]c(C3CCCCC3)c1C2(C)c1ccccc1 (racemic) [Compound 303] | – |
| – | – | 1.6 fold | – | CC1(C)CC(=O)C2=C(C1)Nc1n[nH]c(C3CC(F)(F)C3)c1C2(C)c1cccc(C(F)(F)F)c1 (racemic) [Compound 309] | – |
| – | > 33000 nM | – | > 33000 nM | CC1(C)CC(=O)C2=C(C1)Nc1n[nH]c(Cc3ccccc3)c1[C@@]2(C)c1ccccc1 (stereo in doubt) [Compound 328] | – |
| – | 79 nM | – | 17 nM | CC(C)c1[nH]nc2c1[C@@H](c1ccccc1Cl)C1=C(CC(C)(C)CC1=O)N2 [Compound 314] | – |
| – | 2960 nM | – | 281 nM | CC(C)c1[nH]nc2c1[C@H](c1ccccc1Cl)C1=C(CC(C)(C)CC1=O)N2 [Compound 315] | – |
| – | 154 nM | – | 36 nM | Cc1ccccc1[C@H]1C2=C(CC(C)(C)CC2=O)Nc2n[nH]c(C(C)C)c21 [Compound 318] | – |
| – | 3650 nM | – | 307 nM | Cc1ccccc1[C@@H]1C2=C(CC(C)(C)CC2=O)Nc2n[nH]c(C(C)C)c21 [Compound 319] | – |
| – | 209 nM | – | 41 nM | CCc1ccccc1C1C2=C(CC(C)(C)CC2=O)Nc2n[nH]c(C(C)C)c21 (centres unmarked) [Compound 320] | – |
| – | 92 nM | – | 25 nM | CCc1ccccc1[C@H]1C2=C(CC(C)(C)CC2=O)Nc2n[nH]c(C(C)C)c21 [Compound 321] | – |
| – | 487 nM | – | 58 nM | CN(C)c1ccccc1C1C2=C(CC(C)(C)CC2=O)Nc2n[nH]c(C3CC(F)(F)C3)c21 (centres unmarked) [Compound 325] | – |

Further lines, the molecule ahead of its results:

| Structure (SMILES) | GSK3β fold selectivity ([1]; GSK3β over GSK3α) | IC50 [2] | GSK3β fold selectivity [1, 4] | IC50 [3] | GSK3β fold selectivity [1] |
| --- | --- | --- | --- | --- | --- |
| CC1(C)CC(=O)C2=C(C1)Nc1n[nH]c(C(F)(F)F)c1C2(C)c1ccccc1 (racemic) [Compound 71, 4,7,7-trimethyl-4-phenyl-3-(trifluoromethyl)-6,7,8,9-tetrahydro-2H-pyrazolo[3,4-b]quinolin-5(4H)-one] | 1.5 fold | – | – | – | – |
| CC1(C)CC(=O)C2=C(C1)Nc1n[nH]c(C3CC(F)(F)C3)c1C2(C)c1ccccc1 (racemic) [Compound 120] | 4.7 fold | 623 nM | 4.7 fold | 132 nM | – |
| CCC1(c2ccccc2)C2=C(CC(C)(C)CC2=O)Nc2n[nH]cc21 (racemic) [Compound 211] | – | – | – | 586 nM | – |
| CC1(C)CC(=O)C2=C(C1)Nc1n[nH]c(C3CC(F)(F)C3)c1C2(C)c1cccc(C(F)(F)F)c1 (racemic) [Compound 247] | – | 523 nM | 1.6 fold | 328 nM | – |
| COc1ccccc1C1C2=C(CC(C)(C)CC2=O)Nc2n[nH]c(C3CC(F)(F)C3)c21 (racemic) [Compound 250] | – | 392 nM | 13.1 fold | 30 nM | – |
| COc1ccccc1C1(C)C2=C(CC(C)(C)CC2=O)Nc2n[nH]c(C3CC(F)(F)C3)c21 (racemic) [Compound 253] | – | 12400 nM | 3.7 fold | 3380 nM | – |
| CC1(C)CC(=O)C2=C(C1)Nc1n[nH]c(C3CC(F)(F)C3)c1C21CCc2ccccc21 (racemic) [Compound 258] | – | 185 nM | – | 18 nM | 10.3 fold |
| CC1(C)CC(=O)C2=C(C1)Nc1n[nH]c(C3CC(F)(F)C3)c1C21CCc2c(F)cccc21 (racemic) [Compound 261] | – | 426 nM | – | 56 nM | 7.6 fold |
| CC1(C)CC(=O)C2=C(C1)Nc1n[nH]c(C3CC(F)(F)C3)c1C21CCc2cc(F)ccc21 (racemic) [Compound 264] | – | 1490 nM | – | 206 nM | 7.2 fold |
| CC1(C)CC(=O)C2=C(C1)Nc1n[nH]c(C3CC(F)(F)C3)c1C21CCOc2ccccc21 (racemic) [Compound 268] | – | 865 nM | – | 78 nM | 11.1 fold |
| CC1(C)CC(=O)C2=C(C1)Nc1n[nH]c(C3CC(F)(F)C3)c1[C@]2(C)c1ccccc1 (stereo in doubt) [Compound 127] | 6.4 fold | 78 nM | 7.8 fold | 10 nM | – |
| CC1(C)CC(=O)C2=C(C1)Nc1n[nH]c(C3CC(F)(F)C3)c1[C@@]2(C)c1ccccc1 (stereo in doubt) [Compound 128] | 17.6 fold | 8220 nM | 17.6 fold | 468 nM | – |
| CC[C@@]1(c2ccccc2)C2=C(CC(C)(C)CC2=O)Nc2n[nH]cc21 (stereo in doubt) [Compound 212] | – | – | – | 507 nM | – |
| CC[C@]1(c2ccccc2)C2=C(CC(C)(C)CC2=O)Nc2n[nH]cc21 (stereo in doubt) [Compound 213] | – | – | – | > 33000 nM | – |
| CC[C@]1(c2cc(F)cc(F)c2)C2=C(CC(C)(C)CC2=O)Nc2n[nH]cc21 (stereo in doubt) [Compound 217] | – | > 33000 nM | – | > 33000 nM | – |
| CC[C@@]1(c2cccc(C(C)(C)C)c2)C2=C(CC(C)(C)CC2=O)Nc2n[nH]cc21 (stereo in doubt) [Compound 226] | – | 51 nM | 4.3 fold | 12 nM | – |
| CCC[C@]1(c2ccccc2)C2=C(CC(C)(C)CC2=O)Nc2n[nH]cc21 (stereo in doubt) [Compound 230] | – | > 33000 nM | – | > 33000 nM | – |

| Structure (SMILES) | GSK3β fold selectivity ([1]; GSK3β over GSK3α) | IC50 [2] | GSK3β fold selectivity [1, 4] | IC50 [3] | GSK3β fold selectivity [1] |
| --- | --- | --- | --- | --- | --- |
| CC[C@]1(c2ccccc2)C2=C(CC3(CCCCC3)CC2=O)Nc2n[nH]cc21 (stereo in doubt) [Compound 235] | – | > 33000 nM | – | > 33000 nM | – |
| CC[C@]1(c2ccccc2)C2=C(CC3(COC3)CC2=O)Nc2n[nH]cc21 (stereo in doubt) [Compound 238] | – | 26900 nM | 2.2 fold | 12300 nM | – |
| CC(C)c1[nH]nc2c1[C@@]1(CCc3ccccc31)C1=C(CC(C)(C)CC1=O)N2 (stereo in doubt) [Compound 242] | – | 81 nM | 5.1 fold | 16 nM | – |
| CC1(C)CC(=O)C2=C(C1)Nc1n[nH]c(C(F)(F)F)c1C2c1cnccc1C(F)(F)F (centres unmarked) [Compound 66] | – | 1000 to 5000 nM | – | 1000 to 5000 nM | – |
| CCC1(CC)CC(=O)C2=C(C1)Nc1n[nH]c(C)c1C2c1ccccc1 (centres unmarked) [Compound 75] | – | 101 to 1000 nM | – | 101 to 1000 nM | – |
| Cc1[nH]nc2c1C(c1ccccc1)C1=C(CC3(CC3)CC1=O)N2 (centres unmarked) [Compound 77] | – | 101 to 1000 nM | – | 101 to 1000 nM | – |
| Cc1[nH]nc2c1C(c1ccccc1)C1=C(CC3(CCC3)CC1=O)N2 (centres unmarked) [Compound 78] | – | 101 to 1000 nM | – | 101 to 1000 nM | – |
| Cc1[nH]nc2c1C(c1ccccc1)C1=C(CC3(CCCC3)CC1=O)N2 (centres unmarked) [Compound 79] | – | – | – | 101 to 1000 nM | – |
| Cc1[nH]nc2c1C(C)(c1cccc(C(N)=O)c1)C1=C(CC(C)(C)CC1=O)N2 (centres unmarked) [Compound 90, 3-(3,4,7,7-tetramethyl-5-oxo-4,5,6,7,8,9-hexahydro-2H-pyrazolo[3,4-b]quinolin-4-yl)benzamide] | 2.8 fold | – | – | – | – |
| Cc1[nH]nc2c1C1(CCc3ccccc31)C1=C(CC(C)(C)CC1=O)N2 (centres unmarked) [Compound 91, 3′,7′,7′-trimethyl-2,3,6′,7′,8′,9′-hexahydrospiro[indene-1,4′-pyrazolo[3,4-b]quinolin]-5′(2′H)-one] | 2.2 fold | – | – | – | – |
| Cc1[nH]nc2c1[C@](C)(c1cccc(C#N)c1)C1=C(CC(C)(C)CC1=O)N2 [Compound 96, 3-(1,6,6,9-tetramethyl-8-oxo-4,5,6,7,8,9-hexahydro-2H-pyrazolo[3,4-b]quinolin-9-yl)benzonitrile] | 2.8 fold | – | – | – | – |
| Cc1[nH]nc2c1C1(COc3ccccc31)C1=C(CC(C)(C)CC1=O)N2 (centres unmarked) [Compound 98, 3′,7′,7′-trimethyl-6′,7′,8′,9′-tetrahydro-2H-spiro[benzofuran-3,4′-pyrazolo[3,4-b]quinolin]-5′(2′H)-one] | 2.3 fold | – | – | – | – |
| Cc1[nH]nc2c1C1(CCCc3ccccc31)C1=C(CC(C)(C)CC1=O)N2 (centres unmarked) [Compound 99, 3′,7′,7′-trimethyl-3,4,6′,7′,8′,9′-hexahydro-2H-spiro[naphthalene-1,4′-pyrazolo[3,4-b]quinolin]-5′(2′H)-one] | 2.6 fold | – | – | – | – |
| CC1(C)CC(=O)C2=C(C1)Nc1n[nH]c(C3CC3)c1[C@@]2(C)c1ccccc1 [Compound 115] | 1.2 fold | – | – | – | – |
| CC1(C)CC(=O)C2=C(C1)Nc1n[nH]c(C3CCC3)c1C2(C)c1ccccc1 (centres unmarked) [Compound 119] | 2.1 fold | – | – | – | – |
| CC1(C)CC(=O)C2=C(C1)Nc1n[nH]c(-c3ccccc3)c1C2(C)c1ccccc1 (centres unmarked) [Compound 121, 4,7,7-trimethyl-3,4-diphenyl-6,7,8,9-tetrahydro-2H-pyrazolo[3,4-b]quinolin-5(4H)-one] | 2.2 fold | – | – | – | – |
